Reference: US20090208573A1, “NOVEL POLYMORPH FORM OF IRBESARTAN” (LEK PHARMACEUTICALS D.D, priority 2004, published 2009)
Read-outs that look alike come from different tables or passages of the source.

Experiments:
[1] = 15% relative humidity and 23° C.
Method: A method of measuring electrostatic nature is a tribogeneration where relative charge on the powdered sample is measured with an electrometer equipped with a Faraday cup (NanoCoulumb Meter, Model 284, Monroe Electronics, USA). Prior to measurement, the charge is generated by strongly vibrating the sample (approximately 3 g) on a dry Petri dish (D=24 cm) for 2 minutes. The charged sample is then transferred to a Faraday cup of the electrometer with a plastic spoon and its charge is measured by an electrometer. After the charge measurement the sample is weighted and the relative charge calculated. All measurements are performed at controlled dry atmosphere conditions (15% relative humidity and 23° C.).

[2] = SEM image, N=200 crystals
Method: The shape of crystals is determined by an analysis of an image, taken by the scanning electron microscope (SEM), JEOL JXA840A at magnification 500-2000×. The length/width ratio of the crystal habit is determined by measuring length and width of a representative sample (N=200) of crystals on the image, using the image analyzing software Olympus DP-Soft, v-3.2. The length/width ratio is calculated independently for each crystal. Finally, the number average of the ratio is determined and optionally histogram calculated.

| SMILES | chargeab. (chargeability by tribogeneration) [1] | a (length of crystals) [2] | a:b (length/width ratio, number average) [2] | b (width of crystals) [2] | chargeab. (chargeability by tribogeneration) ([1]; listed as 3913D) | chargeab. (chargeability by tribogeneration) ([1]; listed as 1649) |
| --- | --- | --- | --- | --- | --- | --- |
| CCCCC1=NC2(CCCC2)C(=O)N1Cc1ccc(-c2ccccc2-c2nnn[nH]2)cc1 [Example 1, 2-n-butyl-4-spirocyclopentane-1-[((2′-tetrazol-5-yl)biphenyl-4-yl)methyl]-2-imidazolin-5-one] | −33.7 ± 15 10^−9 As/g | 14.9 ± 10.1 μm | 13 ± 10 | 1.2 ± 1.4 μm |  |  |
| CCCCC1=NC2(CCCC2)C(=O)N1Cc1ccc(-c2ccccc2-c2nnn[nH]2)cc1 [Example 2, 2-n-butyl-4-spirocyclopentane-1-[((2′-tetrazol-5-yl)biphenyl-4-yl)methyl]-2-imidazolin-5-one] | −32 ± 4.6 10^−9 As/g | 78 ± 68 μm | 13.4 ± 1.9 | 6.7 ± 2.8 μm |  |  |
| CCCCC1=NC2(CCCC2)C(=O)N1Cc1ccc(-c2ccccc2-c2nnn[nH]2)cc1 [Example 3, 2-n-butyl-4-spirocyclopentane-1-[((2′-tetrazol-5-yl)biphenyl-4-yl)methyl]-2-imidazolin-5-one] | −45.8 ± 4.9 10^−9 As/g | 20.7 ± 17.4 μm | 23.3 ± 23 | 1.0 ± 0.5 μm | 45.8±4.9 10^−9 As/g |  |
| CCCCC1=NC2(CCCC2)C(=O)N1Cc1ccc(-c2ccccc2-c2nnn[nH]2)cc1 [Example 4, 2-n-butyl-4-spirocyclopentane-1-[((2′-tetrazol-5-yl)biphenyl-4-yl)methyl]-2-imidazolin-5-one] | −27.5 ± 5.6 10^−9 As/g | 130 ± 96 μm | 17 ± 12.9 | 7.9 ± 3.4 μm |  |  |
| CCCCC1=NC2(CCCC2)C(=O)N1Cc1ccc(-c2ccccc2-c2nnn[nH]2)cc1 [Example 5, 2-n-butyl-4-spirocyclopentane-1-[((2′-tetrazol-5-yl)biphenyl-4-yl)methyl]-2-imidazolin-5-one] | −17.1 ± 2.9 10^−9 As/g | 58 ± 50 μm | 9.5 ± 8 | 6.4 ± 1.2 μm |  |  |
| CCCCC1=NC2(CCCC2)C(=O)N1Cc1ccc(-c2ccccc2-c2nnn[nH]2)cc1 [Example 6, 2-n-butyl-4-spirocyclopentane-1-[((2′-tetrazol-5-yl)biphenyl-4-yl)methyl]-2-imidazolin-5-one] | −27.9 ± 2.8 10^−9 As/g | 32 ± 32 μm | 22 ± 18 | 1.4 ± 0.6 μm |  |  |
| CCCCC1=NC2(CCCC2)C(=O)N1Cc1ccc(-c2ccccc2-c2nnn[nH]2)cc1 [Example 7, 2-n-butyl-4-spirocyclopentane-1-[((2′-tetrazol-5-yl)biphenyl-4-yl)methyl]-2-imidazolin-5-one] | −26.5 ± 6 10^−9 As/g | 21 ± 17 μm | 13 ± 9 | 2.6 ± 1.0 μm |  | −26.5±6 10^−9 As/g |
